Test results published in US10633377B2, “Imidazole and thiazole compositions for modifying biological signaling” (Ohio University, priority 2014, dated 2020).
Read-outs that look alike come from different tables or passages of the source.

Columns and labels:
IL-6 transcripts = test: Inhibition of LPS induction of IL-6 transcripts in macrophages (rt-PCR); type: cell-based, Murine; conditions: for IC50: LPS-treated murine macrophages, mRNA transcripts by rt-PCR
Experimental: (§1) Murine macrophages were treated with LPS in the presence of various exemplary compounds described above. Subsequently, the cells were harvested and the transcripts for IL-6, iNOS, and INF-β quantified via rt-PCR. IC50 is the concentration of the compounds required to inhibit 50% of the mRNA transcripts induced by LPS. TC50 is the concentration of the compounds required to diminish the MTS signal by 50% (MTS signal correlates with cell metabolism/viability). Therapeutic Index (TI) is the ratio of TC50 to IC50.
(§2) In TABLE 4, data are provided that show effects of exemplary compounds described above on the inhibition of LPS induction of IL-6, iNOS, and INF-β transcripts in macrophages. The IL-6, iNOS, and INF-β transcripts are key mediators in a plethora of signaling networks that are involved in normal physiology and pathological processes. The mechanism by which LPS induces the IL-6, iNOS, and INF-β transcripts is via a network of signaling events. […] Data in TABLE 4 that was not calculatable is noted “NC.”

iNOS transcripts = test: Inhibition of LPS induction of iNOS transcripts in macrophages (rt-PCR); type: cell-based; conditions: LPS-treated murine macrophages, mRNA transcripts by rt-PCR
Experimental: as §1, §2

INF-β transcripts = test: Inhibition of LPS induction of INF-β transcripts in macrophages (rt-PCR); type: cell-based, Murine; conditions: for IC50: LPS-treated murine macrophages, mRNA transcripts by rt-PCR
Experimental: as §1, §2

[1] = MTS signal (cell metabolism/viability); type: cell-based, Murine; conditions: mouse, murine macrophages; concentration required to diminish the MTS signal by 50%; read-out: Average TC50
Experimental: as §1

Murine macrophages = test: MTS signal (cell metabolism/viability); type: cell-based
Experimental: as §1

IC50 (IL-6 transcripts; Mus musculus, Macrophage) [µM]	IC50 (iNOS transcripts; Mus musculus, Macrophage) [µM]	IC50 (INF-β transcripts; Mus musculus, Macrophage) [µM]	SMILES	CC50 [1] [µM]	other results
30	36	22	COc1cccc(-c2c[nH]c(=S)n2C)c1 [COB-117]		
45	60	46	Cn1c(-c2cccc(Cl)c2)c[nH]c1=S [COB-119]	390	
19	55	21	COc1ccc(-c2c[nH]c(=S)n2C)cc1OC [COB-123]		
31	43	36	CCn1c(-c2cccc(Cl)c2)c[nH]c1=O [COB-125]	500	
29	26	47	COc1ccc(-c2c[nH]c(=S)n2C)c(OC)c1 [COB-130]		
26	38	85	COc1ccc(OC)c(-c2c[nH]c(=S)n2C)c1 [COB-132]	360	
66	87	135	Cn1c(-c2ccc(OC(F)(F)F)cc2)c[nH]c1=S [COB-134]		
13	3	1	COc1ccc(OC)c(C2(O)CSC(=S)N2Cc2ccccc2)c1 (stereo not drawn) [COB-143]	23	
17	1.5	1.5	OC1(c2ccccc2)CSC(=S)N1CCCc1ccccc1 (stereo not drawn) [COB-168]	12	
8	32	13	S=c1scc(-c2ccccc2)n1CCc1ccccc1 [COB-177]		
19	9.5	8	OC1(c2ccccc2)CSC(=S)N1Cc1nc2ccccc2[nH]1 (stereo not drawn) [COB-183]	> 50	
	1.9		OC1(c2ccccc2)CSC(=S)N1Cc1cccc(CN2C(=S)SCC2(O)c2ccccc2)c1 (stereo not drawn) [COB-186]	4	IL-6 inhibition printed in IC50 column (IL-6 transcripts; 0.03 μM-2 μM): <30%; INF-β inhibition printed in IC50 column (INF-β transcripts; 0.5 μM-2 μM): 40%
	0.375	0.125	OC1(c2ccccc2)CSC(=S)N1Cc1ccncc1 (stereo not drawn) [COB-187]	15	
	0.25	0.25	OC1(c2ccccc2)CSC(=S)N1Cc1ccc2[nH]ccc2c1 (stereo not drawn) [COB-188]	13	
	0.5	0.375	Oc1cccc(C2(O)CSC(=S)N2Cc2ccccc2)c1 (stereo not drawn) [COB-196]	17	
	2.5	2.5	COc1ccc(OC)c(C2(O)CSC(=S)N2Cc2cccnc2)c1 (stereo not drawn) [COB-197]		
	0.15	0.2	Oc1cccc(C2(O)CSC(=S)N2Cc2cccnc2)c1 (stereo not drawn) [COB-198]	17	
	2.2	> 5	COc1ccc(C2(O)CSC(=S)N2Cc2cccnc2)c(OC)c1 (stereo not drawn) [COB-199]	23	
	0.5	0.4	Oc1ccc(C2(O)CSC(=S)N2Cc2cccnc2)c(O)c1 (stereo not drawn) [COB-200]	11	

IC50 (IL-6 transcripts; Mus musculus, Macrophage) [µM]	IC50 (iNOS transcripts; Mus musculus, Macrophage) [µM]	IC50 (INF-β transcripts; Mus musculus, Macrophage) [µM]	SMILES	CC50 [1] [µM]	other results
	0.45	1.25	COc1ccc(C2(O)CSC(=S)N2Cc2cccnc2)cc1 (stereo not drawn) [COB-201]	10	
	2.2	4.4	O=c1oc2ccccc2cc1C1(O)CSC(=S)N1Cc1cccnc1 (stereo not drawn) [COB-202]	43	
19.5		8	COc1ccc(OC)c(-c2csc(=S)n2Cc2cccnc2)c1 [COB-203]	270	
5	7	14	COc1ccc(-c2csc(=S)n2Cc2cccnc2)c(OC)c1 [COB-204]	130	
10.5	54	30	COc1ccc(-c2csc(=S)n2Cc2cccnc2)cc1 [COB-206]	120	
16	2	3	CCCN1C(=S)SCC1(O)c1ccc(Cl)c(Cl)c1 (stereo not drawn) [COB-210]	45	
	3.4	3.6	CCCCCCN1C(=S)SCC1(O)c1ccccc1 (stereo not drawn) [COB-212]	54	
6	10.5		CCCn1c(-c2cccnc2)csc1=S [COB-214]	230	
8.8	~10	~10	CCCn1c(-c2cccc([N+](=O)[O-])c2)csc1=S [COB-215]	~100	
			C=CCn1c(-c2ccccc2)csc1=S [COB-217]		IC50 (IL-6 transcripts): 8.2 µM; IC50 (iNOS transcripts): ~10 µM; IC50 (INF-β transcripts): ~10 µM; MTS signal decrease (Murine macrophages): 30%
9.5		10.5	CCCCCCn1c(-c2ccccc2)csc1=S [COB-218]		MTS signal decrease (Murine macrophages; 100 μM): 0%
8.5	~20	16.5	CCCn1c(-c2ccc(Cl)c(Cl)c2)csc1=S [COB-219]		MTS signal decrease (Murine macrophages; 100 μM): 30%
5.5	3.75	12.2	CCCn1c(-c2cc(OC)ccc2OC)csc1=S [COB-220]	60	
> 10	1.8	1.5	Oc1ccc(Cl)cc1C1(O)CSC(=S)N1Cc1ccccc1 (stereo not drawn) [COB-221]	18	
8.6	0.45	0.45	Oc1ccc(Cl)cc1C1(O)CSC(=S)N1Cc1cccnc1 (stereo not drawn) [COB-222]	15	
3.5	0.4	0.4	Cc1ccc(C)c(C2(O)CSC(=S)N2Cc2cccnc2)c1 (stereo not drawn) [COB-223]	14	
3.5	0.4	0.45	Cc1ccccc1C1(O)CSC(=S)N1Cc1cccnc1 (stereo not drawn) [COB-224]	13	
12.5	1.5	1.5	OC1(c2cc(C(F)(F)F)ccc2Cl)CSC(=S)N1Cc1cccnc1 (stereo not drawn) [COB-226]	33	
8.1	~10	~10	CCCn1c(-c2ccc(C#N)cc2)csc1=S [COR-216]	> 100	

SMILES	IC50 (IL-6 transcripts; Mus musculus, Macrophage) [µM]	IC50 (iNOS transcripts; Mus musculus, Macrophage) [µM]	IC50 (INF-β transcripts; Mus musculus, Macrophage) [µM]	CC50 [1] [µM]	other results
OC1(c2ccccc2)CSC(=S)N1Cc1cccnc1 (stereo not drawn) [COB-152]	4.25	0.156	0.156	18	
COc1ccc(F)cc1C1(O)CSC(=S)N1Cc1cccnc1 (stereo not drawn) [COB-225]	32.5	1	1	65	
CCCN1C(=S)SCC1(O)c1cccnc1 (stereo not drawn) [COR-207]	12	2.7	2.1		
